These results are taken from patent US11040027B2, “Protein kinase inhibitors for promoting liver regeneration or reducing or preventing hepatocyte death” (HEPAREGENIX GMBH, priority 2017, dated 2021).

For one test, the system named is C57BL/6N female mice. Nature of the test: In vivo survival study after Jo2 antibody injection. The settings on record: 30 mg/kg oral gavage 1 h before i.p. 0.8 μg/g Jo2 antibody; versus vehicle only; 24 h; FIG. 1.
A further test concerns the target T1, MKK4 (Homo sapiens, UniProt P45985).
T1 sequence (P45985 84-399): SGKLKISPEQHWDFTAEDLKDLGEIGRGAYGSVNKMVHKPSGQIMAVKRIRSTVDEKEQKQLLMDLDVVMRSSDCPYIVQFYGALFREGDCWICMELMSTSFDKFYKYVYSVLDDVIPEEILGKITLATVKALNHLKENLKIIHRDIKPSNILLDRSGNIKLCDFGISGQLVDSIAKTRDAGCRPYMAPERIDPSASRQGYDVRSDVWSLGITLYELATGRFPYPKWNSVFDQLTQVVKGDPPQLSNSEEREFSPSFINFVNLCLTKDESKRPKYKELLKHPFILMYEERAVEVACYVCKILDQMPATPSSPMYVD
Nature of the test: KINOMEscan competition binding assay, MKK4. The settings on record: read-out: Potency MKK4 (derived from % of control values, PoC).

The next test concerns the target BRaf (Homo sapiens, UniProt P15056). Nature of the test: KINOMEscan competition binding assay, selectivity BRaf versus MKK4. The settings on record: Test conc. 0.1 μM; ratio of percent of control; N/E* per footnote.
Another test concerns the target JNK1 (Homo sapiens, UniProt P45983). Nature of the test: KINOMEscan competition binding assay, selectivity JNK1 versus MKK4. The note with it: Test conc 0.1 μM; ratio of percent of control; N/E* = PoC for JNK1 = 100.
The target of the next test is T2, MKK7 (Homo sapiens, UniProt O14733).
T2 sequence (O14733 1-419): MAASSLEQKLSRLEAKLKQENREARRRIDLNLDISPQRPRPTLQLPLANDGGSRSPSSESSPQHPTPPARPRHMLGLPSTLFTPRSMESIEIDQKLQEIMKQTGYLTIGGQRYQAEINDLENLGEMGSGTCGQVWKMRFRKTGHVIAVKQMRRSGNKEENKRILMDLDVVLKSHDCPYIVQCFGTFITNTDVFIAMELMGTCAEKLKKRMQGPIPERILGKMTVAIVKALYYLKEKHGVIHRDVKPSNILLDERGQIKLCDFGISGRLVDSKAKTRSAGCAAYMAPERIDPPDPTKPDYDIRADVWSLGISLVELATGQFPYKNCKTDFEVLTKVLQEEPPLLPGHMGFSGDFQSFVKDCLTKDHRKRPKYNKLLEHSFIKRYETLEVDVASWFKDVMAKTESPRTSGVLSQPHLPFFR
Nature of the test: KINOMEscan competition binding assay, selectivity MKK7 versus MKK4. The settings on record: Test conc. 0.1 μM; ratio of percent of control; N/E* per footnote.

In a further test the target is T3, MKK4 active (Homo sapiens, UniProt P45985).
T3 construct: purchased ProQinase 0948-0000-1
T3 sequence (P45985 1-399): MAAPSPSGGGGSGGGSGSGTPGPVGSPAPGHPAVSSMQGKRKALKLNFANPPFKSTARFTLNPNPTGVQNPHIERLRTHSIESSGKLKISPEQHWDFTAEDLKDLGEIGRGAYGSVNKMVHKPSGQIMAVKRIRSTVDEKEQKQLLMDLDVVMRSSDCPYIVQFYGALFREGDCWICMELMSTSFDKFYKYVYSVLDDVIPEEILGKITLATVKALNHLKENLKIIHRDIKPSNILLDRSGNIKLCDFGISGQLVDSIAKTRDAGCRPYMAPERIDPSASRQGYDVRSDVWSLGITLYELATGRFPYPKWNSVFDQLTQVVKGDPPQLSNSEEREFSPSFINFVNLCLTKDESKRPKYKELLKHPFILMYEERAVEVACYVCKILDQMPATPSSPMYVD
In words: Radiometric protein kinase assay, MKK4 active. The test is classed as biochemical. The note with it: substrate JNK1 KRKR, ATP 0.2 μM, read-out: MKK4 (potency derived from IC50-values). The method, then: (§1) A radiometric protein kinase assay was used for measuring the kinase activity of the respective protein kinases. All kinase assays were performed in 96-well polypropylene plates. After the reactions were stopped, the assay mixtures were transferred to 96-well MSFC filter-plates (Millipore). The reaction mix was passed through the filter membrane by aspiration, the membrane was washed 3 times with 150 mM H3PO4, once with ethanol, dried and liquid scintillation cocktail was added. Radioactivity was determined by counting of the samples in a Microbeta multiwell scintillation counter (Wallac).
(§2) b) Single Kinases • 20 μl standard assay buffer • 5 μl compound in 10% DMSO • 20 μl enzyme-substrate mix • 10 μl of substrate solution
(§3) The reaction cocktails were incubated at 30° C. for 30 minutes.

The next test addresses T4, MEKK2 (Homo sapiens, UniProt Q9Y2U5).
T4 construct: purchased ProQinase 0583-0000-1
T4 sequence (Q9Y2U5 1-619): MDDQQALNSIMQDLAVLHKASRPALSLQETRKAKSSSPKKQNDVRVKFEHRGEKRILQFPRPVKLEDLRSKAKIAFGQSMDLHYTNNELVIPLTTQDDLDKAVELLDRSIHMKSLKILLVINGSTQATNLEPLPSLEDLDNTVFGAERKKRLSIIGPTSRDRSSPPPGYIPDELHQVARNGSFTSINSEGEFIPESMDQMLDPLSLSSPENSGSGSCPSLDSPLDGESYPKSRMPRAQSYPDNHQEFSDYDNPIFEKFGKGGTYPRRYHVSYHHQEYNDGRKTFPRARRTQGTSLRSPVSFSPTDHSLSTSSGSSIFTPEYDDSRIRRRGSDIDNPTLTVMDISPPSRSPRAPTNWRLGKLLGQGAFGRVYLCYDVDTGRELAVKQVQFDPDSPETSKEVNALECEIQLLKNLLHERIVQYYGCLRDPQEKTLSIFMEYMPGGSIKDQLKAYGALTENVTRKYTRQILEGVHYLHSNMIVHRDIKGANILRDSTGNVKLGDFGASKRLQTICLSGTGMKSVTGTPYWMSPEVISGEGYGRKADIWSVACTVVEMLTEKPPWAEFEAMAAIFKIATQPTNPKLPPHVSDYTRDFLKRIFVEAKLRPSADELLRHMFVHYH
In words: Radiometric protein kinase assay, MEKK2. The test is classed as biochemical. The note with it: substrate Casein, ATP 0.2 μM; read-out: MEKK2 (potency derived from IC50-values). The protocol: as §1, §2, §3

Sequence of JNK1 (P45983 1-384 isoform P45983-2): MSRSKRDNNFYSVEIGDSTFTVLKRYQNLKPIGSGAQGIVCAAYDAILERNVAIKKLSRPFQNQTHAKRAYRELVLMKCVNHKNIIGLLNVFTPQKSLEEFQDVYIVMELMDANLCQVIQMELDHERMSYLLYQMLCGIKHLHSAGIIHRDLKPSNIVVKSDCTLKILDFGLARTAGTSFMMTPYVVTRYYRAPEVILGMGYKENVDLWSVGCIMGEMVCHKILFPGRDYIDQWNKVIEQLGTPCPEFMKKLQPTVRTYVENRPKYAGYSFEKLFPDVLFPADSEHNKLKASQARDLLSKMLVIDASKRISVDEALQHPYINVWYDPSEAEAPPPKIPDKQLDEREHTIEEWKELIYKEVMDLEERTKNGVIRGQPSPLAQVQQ
Sequence of BRaf (P15056 whole entry): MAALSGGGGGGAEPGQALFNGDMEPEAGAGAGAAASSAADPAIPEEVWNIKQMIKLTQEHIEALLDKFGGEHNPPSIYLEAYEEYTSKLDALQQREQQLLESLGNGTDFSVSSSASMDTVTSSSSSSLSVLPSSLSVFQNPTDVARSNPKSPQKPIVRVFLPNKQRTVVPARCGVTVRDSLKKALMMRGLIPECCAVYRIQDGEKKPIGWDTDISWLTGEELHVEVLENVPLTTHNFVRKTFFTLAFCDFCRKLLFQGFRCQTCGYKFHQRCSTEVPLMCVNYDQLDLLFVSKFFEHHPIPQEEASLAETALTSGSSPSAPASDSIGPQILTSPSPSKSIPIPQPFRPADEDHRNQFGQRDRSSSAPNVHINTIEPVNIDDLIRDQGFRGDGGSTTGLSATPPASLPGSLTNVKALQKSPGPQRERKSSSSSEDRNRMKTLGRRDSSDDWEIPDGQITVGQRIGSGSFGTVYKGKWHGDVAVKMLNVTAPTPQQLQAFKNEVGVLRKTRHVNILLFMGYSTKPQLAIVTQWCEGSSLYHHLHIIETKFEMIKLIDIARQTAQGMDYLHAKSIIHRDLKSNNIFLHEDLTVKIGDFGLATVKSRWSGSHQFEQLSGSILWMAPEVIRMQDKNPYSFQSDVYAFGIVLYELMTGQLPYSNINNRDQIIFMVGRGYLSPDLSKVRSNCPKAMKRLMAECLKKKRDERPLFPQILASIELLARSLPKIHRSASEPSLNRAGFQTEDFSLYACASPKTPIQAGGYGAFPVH
Experimental for C57BL/6N female mice: C57BL/6N female mice, age 6-9 weeks, purchased from Charles River Laboratories, Research Models and Services, Germany GmbH (Sulzfeld), were housed in accordance with the institutional guidelines of the University of TObingen, Germany. All animal experiments were approved by the German legal authorities.
Three experiments with n=3, n=4 and n=6 animals per group were performed. At time point t=−1 h), mice were dosed by oral gavage with either 30 mg/kg of compound, mixed in 2% hydroxymethylcellulose, pH 4.0) or vehicle only. One hour later (t=0 h), all animals were intraperitoneally (i.p.) injected with 0.8 μg/g mouse weight of Jo2 antibody (BD Pharmingen, San Diego, Calif.) diluted in 0.9% NaCl.
Mice were continuously monitored and survival was monitored all 15 min. After 24 h, all surviving animals were sacrificed.
Experimental for JNK1: The assay was performed by combining three components: DNA-tagged kinase; immobilized ligand; and a test compound. The ability of the test compound to compete with the immobilized ligand was measured via quantitative PCR of the DNA tag.
For investigation of the affinity to MKK4, MKK7 and JNK1, the kinases were produced in HEK-293 cells and subsequently tagged with DNA for qPCR detection. […] The liganded beads were blocked with excess biotin and washed with blocking buffer (SEABLOCK™ (Pierce), 1% BSA, 0.05% TWEEN®20, 1 mM DTT) to remove unbound ligand and to reduce nonspecific binding. […] All reactions were performed in polystyrene 96-well plates in a final volume of 0.135 mL. […] The kinase concentration in the eluates was measured by qPCR.
The test compounds were provided as 10 mM stock solutions. The test solutions at indicated final concentrations were prepared at DiscoverX.

Consider `CCCS(=O)(=O)Nc1ccc(F)c(C(=O)c2c[nH]c3ncc(-c4ccc(Cl)cc4)cc23)c1F` [Example 2, Propane-1-sulfonic acid {3-[5-(4-chloro-phenyl)-1H-pyrrolo[2,3-b]pyridine-3-carbonyl]-2,4-difluoro-phenyl}-amide], for which the survival rate result in the test with C57BL/6N female mice is on record as “significantly higher”.
With `CCCCS(=O)(=O)Nc1cccc(C(=O)c2c[nH]c3ncc(-c4ccc5c(c4)OCCO5)cc23)c1F` [Example 54], the remaining binding at 0.1 µM at MKK4 was < 10%. Also, the “Selectivity BRaf/MKK4” value on BRaf was 36. In addition, the “Selectivity JNK1/MKK4” value at JNK1 is reported as 55. For the same molecule, the “Selectivity MKK7/MKK4” value at MKK7 is recorded as 61. The IC50 is < 500 nM at MKK4 active and 1000 to 10000 nM at MEKK2.
For `CCCCS(=O)(=O)Nc1cccc(C(=O)c2c[nH]c3ncc(-c4cc5c(cc4Cl)OCO5)cc23)c1F` [Example 55], the remaining binding at 0.1 µM on MKK4 is < 10%. Further, the “Selectivity BRaf/MKK4” value on BRaf was “N/E* (PoC for JNK1 = 100)”. In addition, the “Selectivity JNK1/MKK4” value at JNK1 was found to be 14. On MKK7, the “Selectivity MKK7/MKK4” value was “N/E* (PoC for JNK1 = 100)”. Also, the half-inhibitory concentration (IC50) on MKK4 active is < 500 nM; on MEKK2, > 10000 nM.
As to `CCCCS(=O)(=O)Nc1cccc(C(=O)c2c[nH]c3ncc(-c4cc5c(cc4Cl)OCCO5)cc23)c1F` [Example 56], on MKK4, the remaining binding at 0.1 µM is < 10%. On BRaf, the “Selectivity BRaf/MKK4” value is listed as “N/E* (PoC for JNK1 = 100)”. The “Selectivity JNK1/MKK4” value on JNK1 was found to be 24. Also, the “Selectivity MKK7/MKK4” value on MKK7 was “N/E* (PoC for JNK1 = 100)”. The IC50 was < 500 nM at MKK4 active and > 10000 nM on MEKK2.
